Here are results for three compounds from publication PMC8395335, “Serotonergic–Muscarinic Interaction within the Prefrontal Cortex as a Novel Target to Reverse Schizophrenia-Related Cognitive Symptoms” (International Journal of Molecular Sciences, 2021).

Read-outs that look alike come from different tables or passages of the source.

The nature of the series: Pharmacokinetic analysis of drug-drug interactions (plasma, FC concentration, FC penetration). It counts as in vivo, mice. Particulars: for Kp at 30 min: frontal cortex/plasma; for Decrease of FC penetration after acute concomitant administration with F15599: subeffective doses, compared to top dose alone. As to the method:
The experiment was performed using the methods described by Bridges et al. and in our previous studies.
The pharmacokinetic analysis was performed in the blood and prefrontal cortex. […] Plasma and FC samples were stored at −80 °C until analysis.
The investigated compounds were administered alone at the top dose (F15599—0.1 mg/kg, VU0357017—5 mg/kg, VU0152100—1 mg/kg, and VU0238429—5 mg/kg) and in combinations of muscarinic ligands at subeffective doses with F15599 at subeffective dose (F15599 + VU0357017 0.05 and 0.15 mg/kg, F15599 + VU0152100 0.05 and 0.05 mg/kg, F15599 + VU0238429 0.05 and 1 mg/kg). The FC and blood were collected on the eighth day, 30 min after administration. All mice were parallelly treated with MK-801 (0.3 mg/kg) for seven consecutive days.
On the day of analysis, frozen whole mouse brain tissues were weighed and homogenized in 1:2 (w/v) volumes of ice-cold acetonitrile containing 0.1% FA and the internal standard mix. Samples were homogenized using a Metal Bead Lysing Matrix, vortexed for 1 min, shaken for 20 min at 4 °C on Thermomixer C, and centrifuged at 14,000× g rpm for 20 min at 4 °C. Finally, 50 µL of supernatant were diluted with 0.1% FA in water (1:1, v/v) and analyzed using HPLC/MS/MS.
The sample extraction of plasma (20 μL) was performed after spiking with the internal standard mix using the protein precipitation method and three volumes of ice-cold acetonitrile containing 0.1% formic acid. The extract was vortexed, incubated on ice for 20 min and centrifuged at 14,000× g rpm for 20 min at 4 °C. The supernatant was diluted with 0.1% FA in water (1:1, v/v) and analyzed by means of HPLC/MS/MS using a QTRAP 4500 (AB Sciex) mass spectrometer in positive ion mode in Multiple Reaction Monitoring (MRM screening) coupled with UHPLC (NEXERA XR, Shimadzu). Chromatographic separation was achieved on a Synergi 4 µm Fusion-RP 80 A 50 × 2 mm (Phenomenex) column at a flow rate of 0.2 mL/min. The gradient program was as follows: 20% B (0.3 min), 20–100% B (1.7 min), 100% B (3 min), 100–20% B (0.1 min), 20% B (2 min), solvent A (95:5:0.1% formic acid in water:methanol) and solvent B (methanol containing 0.1% formic acid). The column temperature was set to 40 °C. Analyst software was used to control the instrument and collect data. The ion transfer tube temperature was 300 °C. The spray voltage, collision energy, declastering potential, and gas parameters were optimized to achieve the maximal response using the test compounds. Selected reaction monitoring was carried out using the transition parameters. Calibration curves were constructed, and a linear response was obtained in the range of 0.25–500 ng/mL (VU357017, VU0152100, and F15599) and 1.25–2500 ng/mL (VU0238429) by spiking known amounts of each compound in blank brain homogenates and plasma. For VU0357017 and F15599 IS VU0152100 was used as internal standard. Sample concentration of internal standard was 100 ng/mL for IS VU0238429 and 50 ng/mL for IS VU0152100.
Brain penetration was calculated as FC/plasma ratio × 100%.

The mark [1] stands for this setting: Albino Swiss, mouse, in vivo, 30 min.
[2] abbreviates: Albino Swiss, mouse, intraperitoneal, acute, top doses alone (VU0357017 5, VU0152100 1, VU0238429 5, F15599 0.1 mg/kg), 30 min after administration, read-out: PFC Penetration (FC/plasma ratio x 100%).
Setting [3] is: Albino Swiss, mouse, intraperitoneal, chronic (7 days with MK-801), top doses alone (VU0357017 5, VU0152100 1, VU0238429 5, F15599 0.1 mg/kg), read-out: PFC Penetration (FC/plasma ratio x 100%).
Where [4] appears, read: Albino Swiss, mouse, plasma, intraperitoneal, acute, top doses alone (VU0357017 5, VU0152100 1, VU0238429 5, F15599 0.1 mg/kg), 30 min after administration, read-out: Plasma.
Setting [5] is: Albino Swiss, mouse, plasma, intraperitoneal, chronic (7 days with MK-801), top doses alone (VU0357017 5, VU0152100 1, VU0238429 5, F15599 0.1 mg/kg), read-out: Plasma.
Setting [6] is: Albino Swiss, mouse, prefrontal cortex (FC), intraperitoneal, acute, top doses alone (VU0357017 5, VU0152100 1, VU0238429 5, F15599 0.1 mg/kg), 30 min after administration, read-out: PFC.
Where [7] appears, read: Albino Swiss, mouse, prefrontal cortex (FC), intraperitoneal, chronic (7 days with MK-801), top doses alone (VU0357017 5, VU0152100 1, VU0238429 5, F15599 0.1 mg/kg), read-out: PFC.
[8] abbreviates: acute, top doses alone (VU0357017 5, VU0152100 1, VU0238429 5, F15599 0.1 mg/kg), 30 min after administration.
Setting [9] is: chronic (7 days with MK-801), top doses alone (VU0357017 5, VU0152100 1, VU0238429 5, F15599 0.1 mg/kg).
Where [10] appears, read: top doses alone, animals treated with MK-801.

Take `Cc1cnc(CNCC2(F)CCN(C(=O)c3ccc(F)c(Cl)c3)CC2)nc1` [F15599]: the PFC (Albino Swiss, mouse, in vivo, 0.1 mg/kg, 30 min) worked out at 21.57 ± 1.26 ng/mL. Further, the concentration at 30 min (Albino Swiss, mouse, in vivo, 0.1 mg/kg, PFC) turned out to be 18.3 ± 0.84 ng/mL. Also, under setting [1], the “Decrease of FC penetration after prolonged administration compared to acute” value (“Decrease of FC penetration … to acute” below) was “ca. 50%” and the “Decrease of FC penetration of F15599 when administered simultaneously” value is given as ~ 50%. Moreover, the “Effect of chronic administration of subeffective doses (combinations) on brain penetration” value (mouse, in vivo) is listed as “increased”.

As for `COc1ccc(CN2C(=O)C(=O)c3cc(OC(F)(F)F)ccc32)cc1` [VU0238429], the “Decrease of FC penetration after acute concomitant administration with F15599” value was ~ 40%. Besides, the Kp at 30 min (Albino Swiss, mouse, intraperitoneal, acute, combination F15599 0.05 mg/kg + VU0238429 1 mg/kg, read-out: PFC Penetration) worked out at 0.36. The Kp at 30 min under setting [2] is 0.53. The Kp at 30 min (Albino Swiss, mouse, intraperitoneal, chronic (7 days with MK-801), combination F15599 0.05 mg/kg + VU0238429 1 mg/kg, read-out: PFC Penetration) came out at 0.15. Further, the Kp at 30 min under setting [3] came to 0.21. Further, under “Albino Swiss, mouse, plasma, intraperitoneal, acute, combination F15599 0.05 mg/kg + VU0238429 1 mg/kg, read-out: Plasma”, the concentration at 30 min is 120 ± 13.9 ng/mL. Besides, under setting [4], the concentration at 30 min turned out to be 486 ± 178 ng/mL. Besides, under “Albino Swiss, mouse, plasma, intraperitoneal, chronic (7 days with MK-801), combination F15599 0.05 mg/kg + VU0238429 1 mg/kg, read-out: Plasma”, the concentration at 30 min was determined as 35 ± 8.89 ng/mL. Besides, the concentration at 30 min under setting [5] turned out to be 844 ± 235 ng/mL. The concentration at 30 min (Albino Swiss, mouse, prefrontal cortex (FC), intraperitoneal, acute, combination F15599 0.05 mg/kg + VU0238429 1 mg/kg, read-out: PFC) was 43.1 ± 1.81 ng/mL. Under setting [6], the concentration at 30 min was 256 ± 32.1 ng/mL. Besides, the concentration at 30 min (Albino Swiss, mouse, prefrontal cortex (FC), intraperitoneal, chronic (7 days with MK-801), combination F15599 0.05 mg/kg + VU0238429 1 mg/kg, read-out: PFC) is 5.13 ± 0.83 ng/mL. The concentration at 30 min under setting [7] amounted to 179 ± 25 ng/mL. Besides, where the note is “FC penetration versus earlier whole-brain data”, the “Fold higher penetration to the FC than to whole brain” value is given as “more than 6 times”. For the same compound, under setting [8], the “PFC Penetration (FC/plasma ratio x 100%)” value is given as 53%. Moreover, the “PFC Penetration (FC/plasma ratio x 100%)” value under setting [9] amounted to 21%. Besides, the “Decrease of FC penetration … to acute” value under setting [10] was “ca. 50%”.

Turning to `CCOC(=O)N1CCC(NCCNC(=O)c2ccccc2C)CC1` [VU0357017], the “Decrease of FC penetration after acute concomitant administration with F15599” value is given as “more than 50%”. Besides, the Kp at 30 min (Albino Swiss, mouse, intraperitoneal, acute, combination F15599 0.05 mg/kg + VU0357017 1 mg/kg, read-out: PFC Penetration) came out at 0.31. Also, under setting [2], the Kp at 30 min turned out to be 0.67. The Kp at 30 min (Albino Swiss, mouse, intraperitoneal, chronic (7 days with MK-801), combination F15599 0.05 mg/kg + VU0357017 0.15 mg/kg, read-out: PFC Penetration) was 0.46. Under setting [3], the Kp at 30 min is 0.36. Further, where the note is “Albino Swiss, mouse, plasma, intraperitoneal, acute, combination F15599 0.05 mg/kg + VU0357017 1 mg/kg, read-out: Plasma”, the concentration at 30 min was 7.19 ± 0.24 ng/mL. The concentration at 30 min under setting [4] came out at 107 ± 7.65 ng/mL. Further, for the setting “Albino Swiss, mouse, plasma, intraperitoneal, chronic (7 days with MK-801), combination F15599 0.05 mg/kg + VU0357017 0.15 mg/kg, read-out: Plasma”, the concentration at 30 min was 5.13 ± 0.38 ng/mL. For the same compound, under setting [5], the concentration at 30 min was found to be 138 ± 14.9 ng/mL. Further, the concentration at 30 min (Albino Swiss, mouse, prefrontal cortex (FC), intraperitoneal, acute, combination F15599 0.05 mg/kg + VU0357017 1 mg/kg, read-out: PFC) is 2.25 ± 0.56 ng/mL. The concentration at 30 min under setting [6] worked out at 71.7 ± 4.69 ng/mL. Besides, where the note is “Albino Swiss, mouse, prefrontal cortex (FC), intraperitoneal, chronic (7 days with MK-801), combination F15599 0.05 mg/kg + VU0357017 0.15 mg/kg, read-out: PFC”, the concentration at 30 min was found to be 2.34 ± 0.255 ng/mL. For the same compound, the concentration at 30 min under setting [7] came out at 50.3 ± 4.62 ng/mL. Moreover, the “PFC Penetration (FC/plasma ratio x 100%)” value under setting [8] was 67%. Moreover, the “PFC Penetration (FC/plasma ratio x 100%)” value under setting [9] is reported as 36%. In addition, under setting [10], the “Decrease of FC penetration … to acute” value is reported as “ca. 50%”.
